{"source": "patent EP0261362A2", "about": "“Ubidecarenone as a keloid remedy” (Eisai Co., Ltd., priority 1986, dated 1988)", "assay_type_in_all_cases": "in vivo", "key": {"[1]": {"system": "skin", "experiment": "Primary skin irritation test", "details": "Concn. 1%, solvent Squalane", "excerpt": "(§1) The safety of percutaneous administration of ubidecarenone is high, and skin irritation due to ubidecarenone is minor. For example, the results of primary skin irritation, accumulative irritation, eyelid irritation, phototoxis, sensitization, photosensitization, and patch tests are as shown in Table l."}, "[2]": {"system": "skin", "experiment": "Accumulative skin irritation test", "details": "Concn. 1%, solvent Squalane", "excerpt": "as §1"}, "[3]": {"system": "eyelid", "experiment": "Eyelid irritation test", "details": "Concn. 1%, solvent Squalane", "excerpt": "as §1"}, "[4]": {"system": "skin", "experiment": "Phototoxis test", "details": "Concn. 1% and 10%, solvent Squalane", "excerpt": "as §1"}, "[5]": {"system": "skin", "experiment": "Sensitization test (Adjuvant & Patch method)", "details": "Induction: 5% acetone", "excerpt": "as §1"}, "[6]": {"system": "skin", "experiment": "Photosensitization test (Adjuvant & Strip method)", "details": "Induction: 10% acetone", "excerpt": "as §1"}, "[7]": {"system": "skin", "experiment": "Patch test", "details": "Concn. 1%, solvent Squalane", "excerpt": "as §1"}}, "data": [{"smiles": "COC1=C(OC)C(=O)C(C/C=C(\\C)CC/C=C(\\C)CC/C=C(\\C)CC/C=C(\\C)CC/C=C(\\C)CC/C=C(\\C)CC/C=C(\\C)CC/C=C(\\C)CC/C=C(\\C)CCC=C(C)C)=C(C)C1=O", "note": "[ubidecarenone]", "values": [{"measurement": "Primary skin irritation, conclusion", "setting": "[1]", "value": "lowly irritative"}, {"measurement": "Primary skin irritation, result", "setting": "[1]", "value": 0.1}, {"measurement": "Accumulative skin irritation, result", "setting": "[2]", "value": 0.3}, {"measurement": "Eyelid irritation, conclusion", "setting": "[3]", "value": "lowly irritative"}, {"measurement": "Phototoxis, conclusion", "setting": "[4]", "value": "lowly phototoxic"}, {"measurement": "Sensitization Challenge, result", "setting": "[5]; challenge 1% in acetone", "value": "0/10"}, {"measurement": "Sensitization Challenge, conclusion", "setting": "[5]; challenge 5% and 1% in acetone", "value": "lowly sensitized"}, {"measurement": "Sensitization Challenge, result", "setting": "[5]; challenge 5% in acetone", "value": "0/10"}, {"measurement": "Photosensitivization Challenge, result", "setting": "[6]; challenge 0.5 in acetone", "value": "0/5"}, {"measurement": "Photosensitivization Challenge, result", "setting": "[6]; challenge 1 in acetone", "value": "0/5"}, {"measurement": "Photosensitivization Challenge, result", "setting": "[6]; challenge 2 in acetone", "value": "0/5"}, {"measurement": "Photosensitivization Challenge, result", "setting": "[6]; challenge 5 in acetone", "value": "0/5"}, {"measurement": "Photosensitivization Challenge, result", "setting": "[6]; challenge 10% in acetone", "value": "0/5"}, {"measurement": "Photosensitivization Challenge, conclusion", "setting": "[6]; challenge 10% to 0.5 in acetone", "value": "lowly photosensitized"}, {"measurement": "Patch test, conclusion", "setting": "[7]", "value": "lowly irritative"}, {"measurement": "Patch test, result", "setting": "[7]", "value": "0/54"}]}]}
